Tests used:
[1] = system: 3-dimensional bioprinted human liver organoids; test: 3-dimensional bioprinted human liver organoids, fibrosis by collagen staining; format: cell-based; settings: added to the tissue medium
[2] = system: mice fed a diet enriched in trans fat, cholesterol and fructose; test: Preclinical NASH model: trans fat, cholesterol and fructose diet for 19 weeks, NAS and fibrosis histology; format: in vivo; settings: 30 mg/kg; treatment of the mice or isolated hepatocytes
Method: Mice were fed a diet enriched in trans fat, cholesterol and fructose for 19 weeks to induce hepatic damage, which was assessed by histological changes in the NAS and fibrosis, measured by trichrome staining for collagen. MSDC-0602K (30 mg/kg) was given at either four weeks into the treatment or 16 weeks into the treatment as compared to the vehicle treated mice who were also on the modified diet. The results of mice who were kept on the normal diet are included for comparison. […] The signals for activation of the stellate cells and fibrosis are attenuated by treatment of the mice or isolated hepatocytes with MSDC-0602K.

[3] = system: patients with NASH; test: Meta-analysis of 17 NASH clinical trials: change from baseline in histological components and endpoint counts; format: in vivo, human; settings: EMMINENCE trial
Method: (§1) Meta-regressions of NASH clinical trials were performed to examine associations between biomarker and histological changes within treatment groups, and to additionally examine associations between treatment effects on biomarkers and on liver histology. Trials that met the following criteria were included: • Randomized controlled clinical trial • Paired biopsies performed at baseline and follow-up, scored using the NASH CRN system.
(§2) • Published results at baseline, follow-up, or changes from baseline for any the following liver injury markers or biomarkers: alanine aminotransferase (ALT), aspartate aminotransferase (AST), alkaline phosphatase, hemoglobin A1c (HbA1c), gamma-glutamyltransferase (GGT), insulin, cytokeratin-18 (CK-18), or Enhanced Liver Fibrosis (ELF) score. Variables selected were based on variables whose change was commonly reported in multiple studies. • Changes in histological scores for ballooning, inflammation, steatosis, and fibrosis, or the pre-determined endpoints of NASH resolution without worsening fibrosis or improvement in fibrosis with no worsening of NASH.
(§3) All results from a search of PubMed for the keywords (“nonalcoholic steatohepatitis” or “non-alcoholic steatohepatitis”) and (“clinical trial” or “randomized”) and filtered for “Clinical Trial” were reviewed. EudraCT and ClinicalTrials.gov were searched for the keyword “nonalcoholic steatohepatitis” with results further filtered for phase 2 or 3, interventional, terminated or completed trials. These three sources returned 265 (PubMed), 153 (ClinicalTrials.gov), and 56 (EudraCT) results, which were each individually reviewed for inclusion in the analysis. Data extracted by one analyst from each source that included means and SDs at baseline, end of study, and changes from baseline to end of study for continuous variables were verified and corrected by a second analyst. Where SDs were not available, any provided estimate of variation was used to derive the SD where possible; a plot-digitizer program was used where data were presented in figures only. Data for dichotomous endpoints were extracted as the number of subjects with the event and corresponding sample size.
All studies included in the current meta-analysis used the NASH CRN histological scoring system for the scoring of the liver biopsy components. The two dichotomous endpoints considered were based on the currently approvable endpoints per FDA guidelines: NASH resolution without worsening of fibrosis, and fibrosis improvement without worsening of NASH.
(§4) Random effects weighted least squares meta-regressions with inverse variance weighting were used to examine the association of changes in ALT, AST, CK-18, HbA1c, fasting insulin levels, ELF, alkaline phosphatase and GGT with biopsy outcomes. CK-18[M30] was measured in all studies except EMMINENCE where CK-18[M651 was reported. These associations were assessed at an individual cohort level (within treatment group), as well as based on the treatment effect. Percent change from baseline in liver injury makers and biomarkers was used as the predictor when examining the associations in the individual cohorts with outcomes while the treatment ratio, the ratio of active to placebo with respect to the relative changes from baseline, was used as the predictor when assessing the association with the treatment effect on outcomes. Standardized mean changes (mean/SD) or standardized mean treatment differences (mean difference/pooled SD) were used for continuous outcomes and Freeman-Tukey double arcsine transformed proportions or log odds ratios were used for dichotomous outcomes. Meta-regression results were computed using the metafor package available in R. P-values <0.05 were considered statistically significant.

[4] = system: cell functions and key regulatory proteins; test: Impact of MSDC-0602K vs overnutrition on cell functions and key regulatory proteins (Table 1)
[5] = system: patients with NASH; test: Meta-analysis of 17 NASH clinical trials: change from baseline in LFTs and biomarkers by study arm, composite outcome; format: in vivo, human; settings: for % Change from Baseline ALT / % Change from Baseline AST / % Change from Baseline Alk Phos / % Change from Baseline CK-18 / % Change from Baseline ELF / % Change from Baseline GGT / % Change from Baseline HbA1c / % Change from Baseline Insulin: EMMINENCE, follow-up 12 months
Method: as §1, §2, §3, §4
From the meta-regression results, ranks for the association with responses and treatment effects for each histologic outcome (changes in ballooning, inflammation, steatosis, and fibrosis; NASH resolution without worsening of fibrosis, and fibrosis improvement without worsening of NAS) were assigned across seven biomarkers (AST, GGT, HbA1c, insulin, CK-18, ELF, and alkaline phosphatase) for both the slope and the mediator p-value (ranks 1-7, with 7 assigned to the biomarker with the greatest slope or lowest p-value). An average rank across all outcomes was then assigned to each biomarker. […]

COc1cccc(C(=O)COc2ccc(CC3SC(=O)NC3=O)cc2)c1 (centres unmarked) [MSDC-0602K]
effects of the nutrients (stellate cell activation, fibrosis by collagen staining) [1]: both prevented and reversed | signals for activation of the stellate cells and fibrosis [2]: attenuated | Change from Baseline, mean: Ballooning ([3]; MSDC-0602K 62.5 mg): −0.36 | Change from Baseline, mean: Fibrosis ([3]; MSDC-0602K 62.5 mg): 0.06 | Change from Baseline, mean: Inflammation ([3]; MSDC-0602K 62.5 mg): −0.08 | Change from Baseline, mean: Steatosis ([3]; MSDC-0602K 62.5 mg): −0.57 | Fibrosis Improvement ([3]; MSDC-0602K 62.5 mg): 20/99 | NASH Resolution ([3]; MSDC-0602K 62.5 mg): 17/99 | Change from Baseline, mean: Ballooning ([3]; MSDC-0602K 125 mg): −0.42 | Change from Baseline, mean: Fibrosis ([3]; MSDC-0602K 125 mg): −0.12 | Change from Baseline, mean: Inflammation ([3]; MSDC-0602K 125 mg): −0.22 | Change from Baseline, mean: Steatosis ([3]; MSDC-0602K 125 mg): −0.51 | Fibrosis Improvement ([3]; MSDC-0602K 125 mg): 23/98 | NASH Resolution ([3]; MSDC-0602K 125 mg): 23/98 | Change from Baseline, mean: Ballooning ([3]; MSDC-0602K 250 mg): −0.38 | Change from Baseline, mean: Fibrosis ([3]; MSDC-0602K 250 mg): −0.06 | Change from Baseline, mean: Inflammation ([3]; MSDC-0602K 250 mg): −0.12 | Change from Baseline, mean: Steatosis ([3]; MSDC-0602K 250 mg): −0.67 | Fibrosis Improvement ([3]; MSDC-0602K 250 mg): 25/101 | NASH Resolution ([3]; MSDC-0602K 250 mg): 27/101 | Fatty acid oxidation (burning fat) [4]: Increased | HIF1α [4]: Decreased | Inflammation (ballooning due to injury) [4]: Decreased | Insulin sensitivity (cellular response to insulin) [4]: Increased | PPARγ, PPARα [4]: Increased | SREBP [4]: Decreased | de novo lipid synthesis (making new fat) [4]: Decreased | mTORC1 [4]: Decreased | treatment effect on the surrogate endpoint (weighted average of changes in AST, CK-18, HbA1c) ([5]; 17 NASH clinical trials): largest treatment effects | % Change from Baseline ALT ([5]; 62.5 mg): −15.71% | % Change from Baseline AST ([5]; 62.5 mg): −8.08% | % Change from Baseline Alk Phos ([5]; 62.5 mg): −6.28% | % Change from Baseline CK-18 ([5]; 62.5 mg): −7.08% | % Change from Baseline ELF ([5]; 62.5 mg): 1.16% | % Change from Baseline GGT ([5]; 62.5 mg): −17.56% | % Change from Baseline HbA1c ([5]; 62.5 mg): −4.16% | % Change from Baseline Insulin ([5]; 62.5 mg): −10.85% | % Change from Baseline ALT ([5]; 125 mg): −28.13% | % Change from Baseline AST ([5]; 125 mg): −21.90% | % Change from Baseline Alk Phos ([5]; 125 mg): −10.70% | % Change from Baseline CK-18 ([5]; 125 mg): −22.13% | % Change from Baseline ELF ([5]; 125 mg): 0.09% | % Change from Baseline GGT ([5]; 125 mg): −13.47% | % Change from Baseline HbA1c ([5]; 125 mg): −3.79% | % Change from Baseline Insulin ([5]; 125 mg): −30.08% | % Change from Baseline ALT ([5]; 250 mg): −23.82% | % Change from Baseline AST ([5]; 250 mg): −11.81% | % Change from Baseline Alk Phos ([5]; 250 mg): −18.74% | % Change from Baseline CK-18 ([5]; 250 mg): −8.61% | % Change from Baseline ELF ([5]; 250 mg): 0.89% | % Change from Baseline GGT ([5]; 250 mg): −28.14% | % Change from Baseline HbA1c ([5]; 250 mg): −3.89% | % Change from Baseline Insulin ([5]; 250 mg): −30.62%

From patent US20240216344A1, “THIAZOLIDINEDIONE ANALOGS FOR THE TREATMENT OF NAFLD AND METABOLIC DISEASES” (Cirius Therapeutics, Inc., priority 2019, published 2024)
